Data on two compounds can be found in patent US9681661B2, “Method of controlling parasitic weeds with mixtures comprising herbicidal acetolactate synthase inhibitors and plant growth regulators” (BASF Agrochemical Products B.V., priority 2011, dated 2017).

Assay [1] relates to Orobanche cumana (ORACE). Description: Field experiment: herbicidal activity against natural Orobanche cumana infestation in sunflower, postemergence treatments. Conditions: Imazamox 50 and/or Prohexadione-Ca 100 g a.i./ha total. It is filed as in vivo. The source says:
Host test plants were, uniform and homogeneous with respect to age, cultivar, and row spacing and distance in the row. Plot size 2.8 m×10 m-4 rows per plot. Test area was kept weed free of conventional weeds (monocotyledon and dicotyledonous weeds) by hand hoeing. Natural infestations of parasitic weeds were present in the soil of the test areas. Postemergence treatments where performed with up to 4 application timings regarding the growth stage of the host plant. Application timings are specified with M, N, O, and P and related to the following growth stages of the host test plants according to the BBCH-scale” Lancashire, […] Boom, E. Weber and A. Witzenberger, 1991: A uniform decimal code for growth stages of crops and weeds. Ann. appl. […] Sequential application were performed with the solo active components and compared to the respective mixture. The respectively stated components A) and B) were used as commercially available formulations and, with addition of a solvent system, introduced into the spray medium used for applying the active composition. In the examples, the spray medium used was water. […] The test period extended over 1 to 4 month. During this time, the plants were tended, and their response to the individual treatments was evaluated. Evaluation was carried out using a scale from 0 to 100 to express activity (in %). 100% means no emergence of the parasitic plants, or complete destruction of at least the above-ground parts, and 0% means no damage or normal course of growth of the parasitic plants. Good herbicidal activity is given at values of at least 70, and very good herbicidal activity is given at values of at least 85. In the examples below, using the method of S. R. Colby (1967) “Calculating synergistic and antagonistic responses of herbicide combinations”, Weeds 15, p. 22ff., the value E, which is expected if the activity of the individual active compounds is only additive, was calculated. E=X+Y-(X·Y/100) • where • X=percent activity using active component A) at an application rate a; • Y=percent activity using active component B) at an application rate b; • E=expected activity (in %) by A)+B) at application rates a+b. If the value found experimentally is higher than the value E calculated according to Colby, a synergistic effect is present. The herbicidal activity of the tested compositions against Orobanche cumana (ORACE) according to the invention is compiled in table V.

Assay [2] relates to Orobanche sp. (ORASS). Description: Field experiment: delay of weed emergence and number of Orobanche plants per host plant in imazamox tolerant sunflower. It is filed as in vivo. The conditions noted are these: Imazamox 30 g/ha at BBCH 14-15 and 20 g/ha at BBCH 16-18, Prohexadione-Ca 60 g/ha at BBCH 14-15 and 40 g/ha at BBCH 16-18; for first visible emergence of orobanche (DAT): untreated 22.

The test system of assay [3] is sunflower. Description: Field experiment: yield of sunflower seeds under Orobanche infestation. In kind it is in vivo, Helianthus annuus L. Conditions: Imazamox 30 g/ha at BBCH 14-15 and 20 g/ha at BBCH 16-18; Prohexadione-Ca 60 g/ha at BBCH 14-15 and 40 g/ha at BBCH 16-18; untreated 1127.
Assay [4] has as its system Orobanche sp. (ORASS). Description: Impact of host infestation with Orobanche, tank mixture versus single application, score 1 to 10. Conditions: 21 days after treatment; application at BBCH 16-18; Imazamox 15 g/ha, Prohexadione-Ca 75 g/ha; value 1 (no infestation) to 10 (high negative impact). In kind it is in vivo. The source says: Seeds of sunflower (Helianthus annuus L.) where sown as host test plants using small scale field experiment equipment. Host test plants were, uniform and homogeneous with respect to age, cultivar, and row spacing and distance in the row. Plot size 2.8 m×10 m—4 rows per plot. Test area was kept weed free of conventional weeds (monocotyledon and dicotyledonous weeds) by hand hoeing. Natural infestations of parasitic weeds were present in the soil of the test areas. Sequential application were performed with the solo active components and compared to the respective mixture. The respectively stated components A) and B) were used as commercially available formulations and, with addition of a solvent system, introduced into the spray medium used for applying the active composition. In the examples, the spray medium used was water.

The test system of assay [5] is Orobanche cumana. The conditions noted are these: reported in EP 0123001 (A1) / Fan et al., Weed Research 2007; cited from earlier work.
Where [6] appears, read: timing M, N, O, P (BBCH growth stage), scale 0 to 100, 100 = no emergence or complete destruction.
Setting [7] is: timing M, O (BBCH growth stage), scale 0 to 100.
The mark [8] stands for this setting: timing N, P (BBCH growth stage), scale 0 to 100.

`COCc1cnc(C2=NC(C)(C(C)C)C(=O)N2)c(C(=O)O)c1` (stereo not drawn) [Imazamox, imazamox]: the activity in % in assay [1] (setting [6]) is listed as 69%; in assay [1] (setting [7]), 67%; in assay [1] (setting [8]) it was 68%. In addition, the “no. of orobanche plants per host plant” value in assay [2] came to 15. Also, in assay [2], the “first visible emergence of orobanche (DAT)” value stood at 81 DAT. For the same compound, the “yield of sunflower seeds” value in assay [3] is on record as 2055 kg/ha. Further, in assay [4], the “impact of host infestation with ORASS” value came out at 4.

For the compound prohexadione-calcium, the values for the activity in % in assay [1] (setting [6]), in assay [1] (setting [7]) and in assay [1] (setting [8]) were 2%, 5% and 8%, respectively. The “no. of orobanche plants per host plant” value in assay [2] is listed as 55. The “first visible emergence of orobanche (DAT)” value in assay [2] is 63 DAT. Also, the “yield of sunflower seeds” value in assay [3] is recorded as 961 kg/ha. Besides, the “impact of host infestation with ORASS” value in assay [4] amounted to 6. Besides, the “sunflower resistance against infection with Orobanche cumana” value in assay [5] is reported as “induces sunflower resistance”.
